Assay results reported in PubChem BioAssay AID256 (DTP/NCI, 2004).
Values joined by “and” are separate entries in the source; they are usually repeats but may differ in a detail not shown here. Identical values can stand only once. Toxic doses and inconclusive results are not listed. How the source made its calls: active means survival T/C of 150% or more; inactive means T/C below 125% in these data.

Test system: CD2F1 mice, L1210 leukemia ip, survival T/C
Assay: NCI In Vivo Anticancer Drug Screen. Data for tumor model L1210 Leukemia (intraperitoneal) in CD2F1 (CDF1) mice
Conditions: higher = longer survival
Procedure, shortened: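 Mice carrying a transplanted tumor received test compound or vehicle alone. The value is the measurement in the treated group divided by that in the vehicle-treated control group.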

Measured: T/C

NCCCN=c1ccc2c3c1c(O)c1c(O)ccc(=O)c1c3[nH]n2CCNCCO
active: endpoint: median survival time, dose: 0.28 mg/kg/injection, schedule: Q03HX008 (ip), vehicle: saline 162 % of control | endpoint: median survival time, dose: 0.38 mg/kg/injection, schedule: Q03HX024 (ip), vehicle: saline 174 % of control | endpoint: median survival time, dose: 0.45 mg/kg/injection, schedule: Q01DX005 (ip), vehicle: saline 174 % of control | endpoint: median survival time, dose: 0.5 mg/kg/injection, schedule: Q01DX009 (ip), vehicle: saline 241 % of control | endpoint: median survival time, dose: 0.56 mg/kg/injection, schedule: Q03HX008 (ip), vehicle: saline 174 % of control | endpoint: median survival time, dose: 0.75 mg/kg/injection, schedule: Q03HX024 (ip), vehicle: saline 329 % of control | endpoint: median survival time, dose: 0.75 mg/kg/injection, schedule: Q04DX003 (ip), vehicle: saline 231 % of control | endpoint: median survival time, dose: 0.9 mg/kg/injection, schedule: Q01DX005 (ip), vehicle: saline 198 % of control | endpoint: median survival time, dose: 1.0 mg/kg/injection, schedule: Q01DX009 (ip), vehicle: saline 217 % of control | endpoint: median survival time, dose: 1.13 mg/kg/injection, schedule: Q03HX008 (ip), vehicle: saline 731 % of control | endpoint: median survival time, dose: 1.5 mg/kg/injection, schedule: Q03HX024 (ip), vehicle: saline 731 % of control | endpoint: median survival time, dose: 1.5 mg/kg/injection, schedule: Q04DX003 (ip), vehicle: saline 186 % of control | endpoint: median survival time, dose: 1.8 mg/kg/injection, schedule: Q01DX005 (ip), vehicle: saline 219 % of control | endpoint: median survival time, dose: 2.0 mg/kg/injection, schedule: Q01DX009 (ip), vehicle: saline 186 % of control | endpoint: median survival time, dose: 2.0 mg/kg/injection, schedule: Q01DX009 (ip), vehicle: water 170 % of control and 365 % of control | endpoint: median survival time, dose: 2.25 mg/kg/injection, schedule: Q03HX008 (ip), vehicle: saline 280 % of control | endpoint: median survival time, dose: 3.0 mg/kg/injection, schedule: Q03HX024 (ip), vehicle: saline 731 % of control | endpoint: median survival time, dose: 3.0 mg/kg/injection, schedule: Q04DX003 (ip), vehicle: saline 207 % of control | endpoint: median survival time, dose: 3.6 mg/kg/injection, schedule: Q01DX005 (ip), vehicle: saline 426 % of control | endpoint: median survival time, dose: 3.6 mg/kg/injection, schedule: Q01DX005 (iv), vehicle: saline 158 % of control | endpoint: median survival time, dose: 4.0 mg/kg/injection, schedule: Q01DX009 (ip), vehicle: saline 219 % of control | endpoint: median survival time, dose: 4.0 mg/kg/injection, schedule: Q01DX009 (ip), vehicle: water 183 % of control and 192 % of control and 292 % of control | endpoint: median survival time, dose: 4.5 mg/kg/injection, schedule: Q01DX001 (ip), vehicle: saline 207 % of control | endpoint: median survival time, dose: 4.5 mg/kg/injection, schedule: Q01DX001 (ip), vehicle: water 164 % of control | endpoint: median survival time, dose: 4.5 mg/kg/injection, schedule: Q03HX008 (ip), vehicle: saline 731 % of control | endpoint: median survival time, dose: 6.0 mg/kg/injection, schedule: Q03HX024 (ip), vehicle: saline 731 % of control | endpoint: median survival time, dose: 6.0 mg/kg/injection, schedule: Q04DX003 (ip), vehicle: saline 243 % of control | endpoint: median survival time, dose: 7.2 mg/kg/injection, schedule: Q01DX005 (ip), vehicle: saline 731 % of control | endpoint: median survival time, dose: 7.2 mg/kg/injection, schedule: Q01DX005 (iv), vehicle: saline 187 % of control | endpoint: median survival time, dose: 8.0 mg/kg/injection, schedule: Q01DX009 (ip), vehicle: saline 329 % of control | endpoint: median survival time, dose: 8.0 mg/kg/injection, schedule: Q01DX009 (ip), vehicle: water 213 % of control and 268 % of control and 333 % of control | endpoint: median survival time, dose: 9.0 mg/kg/injection, schedule: Q01DX001 (ip), vehicle: saline 231 % of control | endpoint: median survival time, dose: 9.0 mg/kg/injection, schedule: Q01DX001 (ip), vehicle: water 158 % of control and 183 % of control | endpoint: median survival time, dose: 9.0 mg/kg/injection, schedule: Q03HX008 (ip), vehicle: saline 731 % of control | endpoint: median survival time, dose: 12.0 mg/kg/injection, schedule: Q04DX003 (ip), vehicle: saline 731 % of control | endpoint: median survival time, dose: 14.4 mg/kg/injection, schedule: Q01DX005 (ip), vehicle: saline 731 % of control | endpoint: median survival time, dose: 16.0 mg/kg/injection, schedule: Q01DX009 (ip), vehicle: saline 280 % of control | endpoint: median survival time, dose: 16.0 mg/kg/injection, schedule: Q01DX009 (ip), vehicle: water 196 % of control and 337 % of control and 365 % of control | endpoint: median survival time, dose: 18.0 mg/kg/injection, schedule: Q01DX001 (ip), vehicle: saline 268 % of control | endpoint: median survival time, dose: 18.0 mg/kg/injection, schedule: Q01DX001 (ip), vehicle: water 216 % of control and 666 % of control | endpoint: median survival time, dose: 18.0 mg/kg/injection, schedule: Q01DX001 (iv), vehicle: saline 162 % of control | endpoint: median survival time, dose: 18.0 mg/kg/injection, schedule: Q03HX008 (ip), vehicle: saline 365 % of control | endpoint: median survival time, dose: 24.0 mg/kg/injection, schedule: Q04DX003 (ip), vehicle: saline 731 % of control | endpoint: median survival time, dose: 28.8 mg/kg/injection, schedule: Q01DX005 (ip), vehicle: saline 731 % of control | endpoint: median survival time, dose: 36.0 mg/kg/injection, schedule: Q01DX001 (ip), vehicle: saline 731 % of control | endpoint: median survival time, dose: 36.0 mg/kg/injection, schedule: Q01DX001 (ip), vehicle: water 208 % of control and 466 % of control | endpoint: median survival time, dose: 36.0 mg/kg/injection, schedule: Q01DX001 (iv), vehicle: saline 192 % of control | endpoint: median survival time, dose: 36.0 mg/kg/injection, schedule: Q01DX001 (iv), vehicle: water 152 % of control | endpoint: median survival time, dose: 48.0 mg/kg/injection, schedule: Q04DX003 (ip), vehicle: saline 731 % of control | endpoint: median survival time, dose: 72.0 mg/kg/injection, schedule: Q01DX001 (ip), vehicle: saline 731 % of control | endpoint: median survival time, dose: 72.0 mg/kg/injection, schedule: Q01DX001 (ip), vehicle: water 666 % of control | endpoint: median survival time, dose: 96.0 mg/kg/injection, schedule: Q04DX003 (ip), vehicle: saline 219 % of control | endpoint: median survival time, dose: 144.0 mg/kg/injection, schedule: Q01DX001 (ip), vehicle: saline 731 % of control | endpoint: median survival time, dose: 144.0 mg/kg/injection, schedule: Q01DX001 (ip), vehicle: water 666 % of control
inactive: endpoint: median survival time, dose: 0.9 mg/kg/injection, schedule: Q01DX005 (iv), vehicle: saline 114 % of control | endpoint: median survival time, dose: 2.2 mg/kg/injection, schedule: Q01DX001 (iv), vehicle: water 103 % of control and 111 % of control | endpoint: median survival time, dose: 2.25 mg/kg/injection, schedule: Q01DX001 (iv), vehicle: saline 117 % of control | endpoint: median survival time, dose: 4.5 mg/kg/injection, schedule: Q01DX001 (iv), vehicle: saline 123 % of control | endpoint: median survival time, dose: 4.5 mg/kg/injection, schedule: Q01DX001 (iv), vehicle: water 108 % of control and 112 % of control | endpoint: median survival time, dose: 8.0 mg/kg/injection, schedule: Q01DX009 (oral), vehicle: saline 104 % of control | endpoint: median survival time, dose: 12.0 mg/kg/injection, schedule: Q03HX024 (ip), vehicle: saline 107 % of control | endpoint: median survival time, dose: 16.0 mg/kg/injection, schedule: Q01DX009 (oral), vehicle: saline 101 % of control | endpoint: median survival time, dose: 28.8 mg/kg/injection, schedule: Q01DX005 (iv), vehicle: saline 104 % of control | endpoint: median survival time, dose: 32.0 mg/kg/injection, schedule: Q01DX009 (ip), vehicle: saline 113 % of control | endpoint: median survival time, dose: 32.0 mg/kg/injection, schedule: Q01DX009 (ip), vehicle: water 114 % of control and 119 % of control and 88 % of control | endpoint: median survival time, dose: 32.0 mg/kg/injection, schedule: Q01DX009 (oral), vehicle: saline 107 % of control | endpoint: median survival time, dose: 64.0 mg/kg/injection, schedule: Q01DX009 (ip), vehicle: saline 90 % of control | endpoint: median survival time, dose: 64.0 mg/kg/injection, schedule: Q01DX009 (oral), vehicle: saline 101 % of control | endpoint: median survival time, dose: 128.0 mg/kg/injection, schedule: Q01DX009 (oral), vehicle: saline 102 % of control

CC(=O)Nc1cccc(N)c1
inactive: endpoint: mean survival time, dose: 100.0 mg/kg/injection, schedule: Q04DX003 (ip), vehicle: saline 102 % of control

CCCCC(NC(=O)CCl)C(=O)O (centres undefined)
inactive: endpoint: mean survival time, dose: 100.0 mg/kg/injection, schedule: Q04DX002 (ip), vehicle: saline with Tween-80 95 % of control | endpoint: mean survival time, dose: 200.0 mg/kg/injection, schedule: Q04DX002 (ip), vehicle: saline with Tween-80 103 % of control

C=C(C)C1(Cc2ccccc2)C(=O)NC(=S)NC1=O
inactive: endpoint: mean survival time, dose: 5.0 mg/kg/injection, schedule: Q01DX001 (ip), vehicle: saline 102 % of control | endpoint: mean survival time, dose: 10.0 mg/kg/injection, schedule: Q01DX001 (ip), vehicle: saline 102 % of control | endpoint: mean survival time, dose: 20.0 mg/kg/injection, schedule: Q01DX001 (ip), vehicle: saline 104 % of control

CCSCCCCO
inactive: endpoint: mean survival time, dose: 75.0 mg/kg/injection, schedule: Q04DX003 (ip), vehicle: saline 97 % of control | endpoint: mean survival time, dose: 150.0 mg/kg/injection, schedule: Q04DX003 (ip), vehicle: saline 103 % of control | endpoint: mean survival time, dose: 300.0 mg/kg/injection, schedule: Q04DX003 (ip), vehicle: saline 98 % of control

Cc1cccc([N+](=O)[O-])c1-c1ccccc1C(=O)O
inactive: endpoint: mean survival time, dose: 100.0 mg/kg/injection, schedule: Q01DX001 (ip), vehicle: Klucel (hydroxypropylcellulose) (HPC) 101 % of control | endpoint: mean survival time, dose: 200.0 mg/kg/injection, schedule: Q01DX001 (ip), vehicle: Klucel (hydroxypropylcellulose) (HPC) 101 % of control | endpoint: mean survival time, dose: 400.0 mg/kg/injection, schedule: Q01DX001 (ip), vehicle: Klucel (hydroxypropylcellulose) (HPC) 101 % of control

CCCCC(NC(=O)C(C)NC(=O)OCc1ccccc1)C(=O)O (centres undefined)
inactive: endpoint: mean survival time, dose: 100.0 mg/kg/injection, schedule: Q04DX003 (ip), vehicle: saline with Tween-80 98 % of control | endpoint: mean survival time, dose: 200.0 mg/kg/injection, schedule: Q04DX003 (ip), vehicle: saline with Tween-80 101 % of control | endpoint: mean survival time, dose: 400.0 mg/kg/injection, schedule: Q04DX003 (ip), vehicle: saline with Tween-80 98 % of control
